Consider ten compounds from ChEMBL document CHEMBL1201862, “PubChem BioAssay data set” (2004).

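Compound exposure: 48 hours, 5 concentrations, 96-well plates. Here, GI50 denotes the concentration required for 50% inhibition of growth.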 The source made the active and inactive calls. No stated cut-off is given here; in the data, active = GI50 up to about 1.1 µM and inactive = higher.

Among the test systems are A549; COLO 205; HCT-15; HL-60; K562; Malme-3M; OVCAR-3; SK-MEL-28; SNB-19; SR; SW-620; TK-10; UACC-257; UACC-62; A498; LOX IMVI.
Common to all, as to test: NCI anticancer screen, dose series, 48 h

`O=c1nc(-c2ccccc2)scc1-c1ccccc1`: the GI50 in the assay with A549 was > 100 µM (inactive); in the assay with COLO 205, > 100 µM (inactive); in the assay with HCT-15, more than 100 µM; with HL-60 it was > 100 µM (inactive); in the assay on K562, > 100 µM (inactive); in the assay on Malme-3M, > 100 µM (inactive). Also, the GI50 was > 100 µM (inactive) in the assay with OVCAR-3; > 100 µM (inactive) in the assay on SK-MEL-28; 59.7 µM (inactive) in the assay with SNB-19; > 100 µM (inactive) with SR; > 100 µM (inactive) in the assay on SW-620; > 100 µM (inactive) in the assay on TK-10. The GI50 with UACC-257 was > 100 µM (inactive); with UACC-62 it was 35.5 µM (inactive).
`Cc1nc2c(o1)/C(=N\c1ccccc1)c1ccccc1/C2=N/c1ccccc1`: the GI50 was > 100 µM (inactive) in the assay with A498; > 100 µM (inactive) in the assay on A549; 29.1 µM (inactive) in the assay with COLO 205; 16 µM with HCT-15; > 100 µM (inactive) in the assay on HL-60; 33.8 µM (inactive) in the assay on K562. Besides, the GI50 is 28.4 µM (inactive) in the assay on LOX IMVI; 56.6 µM (inactive) in the assay with Malme-3M; 26.6 µM (inactive) in the assay on OVCAR-3; > 100 µM (inactive) in the assay on SNB-19; 16.9 µM (inactive) with SW-620; > 100 µM (inactive) in the assay on TK-10. Also, the GI50 in the assay with UACC-257 and in the assay with UACC-62 was > 100 µM (inactive) in each case.
For `Cc1cccc(C(C)(C)C)c1NC(=O)CCc1nnc(S)[nH]1`, the GI50 was > 100 µM (inactive) in the assay with A498; > 100 µM (inactive) in the assay with A549; > 100 µM (inactive) in the assay on COLO 205; more than 100 µM in the assay with HCT-15; > 100 µM (inactive) in the assay with HL-60; > 100 µM (inactive) with K562. In addition, the GI50 in the assay on LOX IMVI, with Malme-3M, in the assay on OVCAR-3, in the assay on SK-MEL-28, in the assay with SNB-19 and in the assay on SW-620 was > 100 µM (inactive) throughout. Further, the GI50 in the assay on TK-10, with UACC-257 and in the assay on UACC-62 was > 100 µM (inactive) in each case.
For the compound `N#CCCc1nc2ccc(Br)cc2c(=O)n1-c1ccc(O)c([N+](=O)[O-])c1`, the GI50 is 47.3 µM (inactive) in the assay with A498; 55 µM (inactive) in the assay with A549; 22.9 µM (inactive) with COLO 205; 18.8 µM in the assay with HCT-15; 17.2 µM (inactive) in the assay on HL-60; 23.9 µM (inactive) with K562. In addition, the GI50 in the assay with LOX IMVI was 19 µM (inactive); in the assay on Malme-3M it was 17.3 µM (inactive); in the assay with OVCAR-3, 18.7 µM (inactive); in the assay on SK-MEL-28, 19.3 µM (inactive); with SW-620, 22.1 µM (inactive); in the assay on TK-10, 34.7 µM (inactive). Further, the GI50 in the assay with UACC-257 is 30.1 µM (inactive); in the assay on UACC-62, 18.9 µM (inactive).
Consider `CCc1ccccc1NC(=O)CCc1n[nH]c(=S)o1`, for which the GI50 in the assay with A498 was > 100 µM (inactive); in the assay on A549, > 100 µM (inactive); in the assay with COLO 205 it was > 100 µM (inactive); in the assay with HCT-15, 19.3 µM; with HL-60, > 100 µM (inactive); with K562, > 100 µM (inactive). Further, the GI50 is > 100 µM (inactive) with Malme-3M; > 100 µM (inactive) in the assay with OVCAR-3; > 100 µM (inactive) in the assay with SK-MEL-28; > 100 µM (inactive) in the assay with SNB-19; 18.6 µM (inactive) in the assay on SW-620; > 100 µM (inactive) in the assay with TK-10. Also, the GI50 with UACC-257 and in the assay with UACC-62 was > 100 µM (inactive) throughout.
For the compound `C=C1CCC23CC(CC[C@@H]2[C@@]12C[C@@H](c1ccoc1)OC2=O)OC3=O` (some centres not stated), the GI50 with A498 is > 100 µM (inactive); in the assay on A549, > 100 µM (inactive); in the assay on COLO 205 it was > 100 µM (inactive); with HCT-15, more than 100 µM; in the assay on HL-60, > 100 µM (inactive); in the assay with K562 it was > 100 µM (inactive). Further, the GI50 in the assay on Malme-3M, in the assay on OVCAR-3, in the assay with SNB-19, in the assay on SW-620, in the assay on TK-10 and with UACC-257 was > 100 µM (inactive) throughout. Moreover, the GI50 in the assay on UACC-62 was > 100 µM (inactive).
Take `CC(NC1CCCC[C@@H]1O)c1ccccc1` (some centres not stated): the GI50 is > 100 µM (inactive) in the assay on A549; > 100 µM (inactive) in the assay with COLO 205; more than 100 µM in the assay with HCT-15; > 100 µM (inactive) in the assay with HL-60; > 100 µM (inactive) in the assay with K562; > 100 µM (inactive) in the assay on LOX IMVI. For the same compound, the GI50 in the assay with Malme-3M, in the assay on OVCAR-3, with SK-MEL-28, in the assay with SNB-19, in the assay with SW-620 and in the assay on TK-10 was > 100 µM (inactive) each time. Further, the GI50 with UACC-257 and in the assay with UACC-62 was > 100 µM (inactive) in each case.
As to `N#CC(C#N)=Cc1ccc(C(O)P(=O)(O)O)cc1` (configuration not stated), the GI50 in the assay with A498 was > 100 µM (inactive); in the assay with A549, > 100 µM (inactive); in the assay on COLO 205, > 100 µM (inactive); in the assay with HCT-15 it was more than 100 µM; with HL-60, 93.5 µM (inactive); in the assay on K562, 69.2 µM (inactive). Moreover, the GI50 in the assay with LOX IMVI, in the assay with Malme-3M, in the assay on OVCAR-3, in the assay on SK-MEL-28, in the assay on SNB-19 and with SW-620 was > 100 µM (inactive) each time. Moreover, the GI50 in the assay on TK-10, in the assay on UACC-257 and in the assay on UACC-62 was > 100 µM (inactive) in each case.
As for `O=C(O)COc1ccccc1C(=O)Nc1ccccc1`, the GI50 with A549 is > 100 µM (inactive); in the assay with COLO 205, > 100 µM (inactive); in the assay with HCT-15, more than 100 µM; in the assay with HL-60 it was > 100 µM (inactive); in the assay with K562, > 100 µM (inactive); in the assay with LOX IMVI, > 100 µM (inactive). The GI50 with Malme-3M, in the assay with OVCAR-3, in the assay with SK-MEL-28, in the assay on SNB-19, in the assay with SR and in the assay with SW-620 was > 100 µM (inactive) each time. Besides, the GI50 in the assay with TK-10, with UACC-257 and in the assay on UACC-62 was > 100 µM (inactive) in each case.
Take `CCOC(=O)NC(=O)c1cn(CCSCCOC(=O)NCCCCCCNC(=O)OCCSCCn2cc(C(=O)NC(=O)OCC)c(=O)n(C)c2=O)c(=O)n(C)c1=O`: the GI50 in the assay with A549 is 45.2 µM (inactive); in the assay with COLO 205, 56.2 µM (inactive); with HCT-15, 86.3 µM; in the assay on HL-60, 15.3 µM (inactive); with LOX IMVI, 32.1 µM (inactive); in the assay with Malme-3M, 24.6 µM (inactive). Besides, the GI50 with OVCAR-3 is 23.8 µM (inactive); in the assay with SK-MEL-28 it was 41.8 µM (inactive); in the assay with SNB-19 it was 34 µM (inactive); in the assay on SR, 13.4 µM (inactive); in the assay with SW-620, 29.8 µM (inactive); with TK-10, 44.3 µM (inactive). Also, the GI50 is 24.4 µM (inactive) with UACC-257 and 24.8 µM (inactive) in the assay with UACC-62.
